# Experiments:
# Assay type in all cases: in vivo, human
# [1] = Skeletal muscle carnitine content (vastus lateralis biopsy, radioenzymatic)
# Method: (§1) Seven healthy, non-vegetarian young men (age 22.4±1.5 yr, body mass 84.3±5.0 kg, body mass index […]) participated in the study. Each subject reported to the laboratory at 8 am on two occasions, separated by a 2-week “wash out” period, and voided their bladder. All subjects had abstained from carnitine containing foods, alcohol, and strenuous exercise for the previous 24 hours. On arrival, subjects were asked to rest in a supine position on a bed while a cannula was inserted retrogradely in to a superficial vein on the dorsal surface of the non-dominant hand. This hand was kept in a hand-warming unit (air temperature 50-55° C.) to arterialize the venous drainage of the hand, and a saline drip was attached to keep the cannula patent. A second cannula was placed in an antecubital vein in the non-dominant forearm for the infusion of insulin and glucose, and a third cannula was inserted into an antecubital vein in the opposite arm for infusion of L-carnitine.
# (§2) On each experimental visit, a 6 hour (h) euglycaemic hyperinsulinaemic insulin (human Actrapid, Novo Nordisk, Denmark) clamp was performed, whilst maintaining a fasting blood glucose concentration of 4.47±0.01 mmol·l^−1. The insulin clamp began at t=0 at a rate of 105 mlU·m^−2·min^−1 with the aim of achieving steady state hyperinsulinaemic (˜150 mlU·l^−1) serum insulin concentration throughout each visit. Following a 1 hour equilibration period, a 5 hour intravenous infusion of 60 mM L-carnitine (CARN) (Lonza Ltd, Basel, Switzerland) or the equivalent volume of saline (CON) began, in randomised manner, in conjunction with the insulin clamp. At the onset of L-carnitine infusion a bolus dose of 15 mg·kg^−1 was administered over 10 minutes (min) in order to rapidly reach a supraphysiological plasma concentration of ˜500 μmol·l^−1. This was followed by a constant infusion at 10 mg·kg^−1·h^−1 for the next […] to maintain hypercarnitinaemia. At t=6 h, the insulin and L-carnitine infusions were stopped, whereas the glucose infusion was continued for approximately 80 min in order to stabilise blood glucose concentration. During this time, on each visit, subjects were fed the same standardised, carnitine-free meal.
# (§3) Muscle biopsy samples were obtained from the vastus lateralis muscle immediately before and after each insulin clamp, and the following morning, using the percutaneous needle biopsy technique, and were snap frozen in liquid nitrogen less than 5 seconds after removal from the limb. One portion of the sample was subsequently freeze-dried and stored at −80° C., and the remainder was stored “wet” in liquid nitrogen. After removal of visible blood and connective tissue, the freeze-dried muscle samples were powdered, and free carnitine (FC), acetylcarnitine (AC), long-chain acylcarnitine (LCAC), and long-chain acyl-CoA (LCACoA) contents were determined radioenzymatically using a modified version of the radioenzymatic method of Cederblad et al (1990). Values were subsequently summed in order to calculate muscle TC. To reduce the variance in non-muscle constituents, muscle carnitine content was adjusted for the highest total creatine content from each pair of samples. Total creatine was calculated as the sum of free creatine and phosphocreatine content determined spectrophotometrically using the method of Harris et al (1974). Muscle glycogen, glucose-6-phosphate (G-6-P), and lactate content was also determined using a modified version of the spectrophotometric method of Harris et al (1974).
# (§4) A two-way ANOVA (time and treatment effects; GraphPad Prism 4.02, GraphPad Software Inc, CA) was performed to locate differences in serum insulin, plasma carnitine, plasma FFA, and blood glucose concentrations as well as muscle PDC activity and carnitine, long-chain acyl-CoA, glycogen, lactate, and glucose-6-phosphate content. When a significant main effect was detected, data were further analysed with Student's paired t tests using the Bonferroni correction. […]
# [2] = Euglycaemic hyperinsulinaemic clamp with intravenous L-carnitine infusion: serum insulin and whole body glucose disposal; conditions: for whole body glucose disposal: mean±SEM
# Method: as §1
# (§5) On each experimental visit, a 6 hour (h) euglycaemic hyperinsulinaemic insulin (human Actrapid, Novo Nordisk, Denmark) clamp was performed, whilst maintaining a fasting blood glucose concentration of 4.47±0.01 mmol·l^−1. The insulin clamp began at t=0 at a rate of 105 mlU·m^−2·min^−1 with the aim of achieving steady state hyperinsulinaemic (˜150 mlU·l^−1) serum insulin concentration throughout each visit. […]
# (§6) During each experimental visit, 1 ml of arterialized venous (a-v) blood was obtained every 5 min for monitoring blood glucose concentration (YSI 2300 STATplus, Yellow Springs Instruments, Ohio). […] These samples were then stored at −80° C. and analyzed at a later date for free fatty acid (FFA) concentration, using an enzymatic-colorimetric assay kit (NEFA C kit, WAKO Chemicals, Germany), and total carnitine (TC) concentration, using the radioenzymatic assay described previously by Cederblad et al (1982). […] Insulin was measured in these samples at a later date with a radioammunoassy kit (Coat-a-Count Insulin, DPC, Ca, USA). […]
# [3] = test system: pyruvate dehydrogenase complex (PDC); test: Muscle pyruvate dehydrogenase complex (PDC) activity in biopsy samples; conditions: for post infusion PDC activity less than CON: CARN vs CON, P<0.05; for muscle PDC activity: post infusion/clamp
# Method: as §1, §5
# Muscle biopsy samples were obtained from the vastus lateralis muscle immediately before and after each insulin clamp, and the following morning, using the percutaneous needle biopsy technique, and were snap frozen in liquid nitrogen less than 5 seconds after removal from the limb. […] After removal of visible blood and connective tissue, the freeze-dried muscle samples were powdered, and free carnitine (FC), acetylcarnitine (AC), long-chain acylcarnitine (LCAC), and long-chain acyl-CoA (LCACoA) contents were determined radioenzymatically using a modified version of the radioenzymatic method of Cederblad et al (1990). […] Total creatine was calculated as the sum of free creatine and phosphocreatine content determined spectrophotometrically using the method of Harris et al (1974). Muscle glycogen, glucose-6-phosphate (G-6-P), and lactate content was also determined using a modified version of the spectrophotometric method of Harris et al (1974).
# The remainder of the frozen muscle was used to determine PDC activity as previously described (Constantin-Teodosiu et al, 1991). Briefly, the activity of PDC in its dephosphorylated active form (PDCa) was assayed in a buffer containing NaF and dichloroacetate (DCA) and was expressed as rate of acetyl-CoA formation (mmol·min^1·(kg wet muscle)^−1 or nmol·min^1·(mg protein)^−1) at 37° C. Protein concentrations were determined using the method of Peterson (1977). […]
# [4] = Muscle metabolites (glycogen, lactate, glucose-6-phosphate, long-chain acyl-CoA) in biopsy samples; conditions: for muscle LCACoA content greater than CON: following morning (24 h), CARN vs CON, P<0.05
# Method: as §1, §2, §3, §4
# [5] = Plasma free fatty acid (FFA) concentration during L-carnitine infusion with insulin clamp; conditions: not significantly different from CON
# Method: Seven healthy, non-vegetarian young men (age 22.4±1.5 yr, body mass 84.3±5.0 kg, body mass index […]) participated in the study. Each subject reported to the laboratory at 8 am on two occasions, separated by a 2-week “wash out” period, and voided their bladder. All subjects had abstained from carnitine containing foods, alcohol, and strenuous exercise for the previous 24 hours. On arrival, subjects were asked to rest in a supine position on a bed while a cannula was inserted retrogradely in to a superficial vein on the dorsal surface of the non-dominant hand. This hand was kept in a hand-warming unit (air temperature 50-55° C.) to arterialize the venous drainage of the hand, and a saline drip was attached to keep the cannula patent. […]
# as §6
smiles,measurement,setting,value
C[N+](C)(C)C[C@H](O)CC(=O)[O-] [L-carnitine],skeletal muscle total carnitine (TC) content,"[1]; 24 h (following morning), not significantly different from pre infusion value",25.1±2.2 mmol·(kg dm)^−1
same,muscle free carnitine (FC) overnight,[1]; 24 h after CARN infusion visit,retuning to basal
same,skeletal muscle total carnitine (TC) content,"[1]; after 5 h L-carnitine infusion during hyperinsulinaemia, pre infusion 22.5±2.0, P<0.01",26.6±1.6 mmol·(kg dm)^−1
same,change in muscle acetyl carnitine (AC),[1]; during the CARN infusion visit,no change
same,increase in muscle free carnitine (FC),"[1]; during the CARN infusion visit, P<0.05",17%
same,skeletal muscle long chain acyl carnitine,[1]; following infusion visit,unchanged
same,increase in skeletal muscle TC,[1]; post vs pre 5 h L-carnitine infusion during hyperinsulinaemia,15%
same,whole body glucose disposal,[2]; 80 min recovery period following the clamp,37.2 ± 3.5 g
same,whole body glucose disposal,"[2]; over the 6 h clamp, n=7",316.8 ± 15.0 g
same,total amount of glucose infused,[2]; whole visit (CON approximately 330 g),~350 g
same,post infusion PDC activity less than CON,[3],30%
same,post infusion PDC activity less than CON,[3]; listed as CARN,31%
same,muscle PDC activity,"[3]; pre 0.43±0.07, P<0.01",0.74±0.06 mmol·min^−1·(kg wm)^−1
same,muscle PDC activity,[3]; pre 4.2±1.6,4.1±0.9 nmol·min^−1·(mg protein)^−1
same,muscle glycogen content,"[4]; 24 h after commencement of the insulin infusion, P<0.001 vs pre, P<0.01 vs CON",736±24 mmol·(kg dm)^−1
same,difference in whole body muscle glycogen content between CON and CARN visits,[4]; assuming skeletal muscle contributes to 40% of total body mass,250 g
same,skeletal muscle glucose-6-phosphate content,[4]; during each visit,No significant differences
same,increase in muscle glycogen content compared with CON,[4]; following an overnight fast (24 h),30%
same,muscle LCACoA content,[4]; following morning (24 h) in the CARN visit,returned to basal
same,muscle LCACoA content greater than CON,[4],40%
same,muscle LCACoA content greater than CON,[4]; listed as CARN,39%
same,skeletal muscle lactate content,[4]; following the CARN infusion visit (CON increased 56%),unchanged
same,decrease in muscle lactate content,"[4]; post infusion, 6 hour clamp",40%
same,muscle glycogen content,"[4]; post infusion, resting 487±23, P<0.01",651±37 mmol·(kg dm)^−1
same,plasma FFA concentration,[5]; by 24 h,0.19 ± 0.02 mmol/L
same,plasma FFA concentration,"[5]; maintained during the insulin clamp, basal 0.30±0.04",0.046 ± 0.01 mmol/L
